Laboratory results taken from PubChem BioAssay AID256 (DTP/NCI, 2004).
Inconclusive results and toxic doses are left out. Rule for the calls: active = survival T/C of 150% or more; inactive = T/C below 125% in these data.

System: CD2F1 mice, L1210 leukemia ip, survival T/C
Assay: NCI In Vivo Anticancer Drug Screen. Data for tumor model L1210 Leukemia (intraperitoneal) in CD2F1 (CDF1) mice
Conditions: higher = longer survival
Procedure, shortened: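 Activity against a transplanted murine tumor was judged by comparing the compound group with a vehicle group. The outcome in the treated animals was divided by that in the controls.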

[1] = endpoint: mean survival time, dose: 25.0 mg/kg/injection, schedule: Q04DX002 (ip), vehicle: saline with Tween-80
[2] = endpoint: mean survival time, dose: 50.0 mg/kg/injection, schedule: Q04DX002 (ip), vehicle: saline with Tween-80
[3] = endpoint: mean survival time, dose: 100.0 mg/kg/injection, schedule: Q04DX002 (ip), vehicle: saline with Tween-80
[4] = endpoint: mean survival time, dose: 200.0 mg/kg/injection, schedule: Q04DX002 (ip), vehicle: saline with Tween-80
[5] = endpoint: mean survival time, dose: 12.5 mg/kg/injection, schedule: Q01DX009 (ip), vehicle: saline with Tween-80
[6] = endpoint: mean survival time, dose: 25.0 mg/kg/injection, schedule: Q01DX009 (ip), vehicle: saline with Tween-80
[7] = endpoint: mean survival time, dose: 50.0 mg/kg/injection, schedule: Q01DX009 (ip), vehicle: saline with Tween-80
[8] = endpoint: mean survival time, dose: 100.0 mg/kg/injection, schedule: Q04DX003 (ip), vehicle: saline with Tween-80
[9] = endpoint: mean survival time, dose: 200.0 mg/kg/injection, schedule: Q04DX003 (ip), vehicle: saline with Tween-80
[10] = endpoint: mean survival time, dose: 100.0 mg/kg/injection, schedule: Q01DX009 (ip), vehicle: saline with Tween-80
[11] = endpoint: mean survival time, dose: 200.0 mg/kg/injection, schedule: Q01DX009 (ip), vehicle: saline with Tween-80
[12] = endpoint: mean survival time, dose: 400.0 mg/kg/injection, schedule: Q04DX003 (ip), vehicle: saline with Tween-80

Measured: T/C

CCOC(=O)NCC(Cl)(Cl)Cl
inactive: endpoint: mean survival time, dose: 37.5 mg/kg/injection, schedule: Q01DX009 (ip), vehicle: saline with Tween-80 98 % of control | endpoint: mean survival time, dose: 75.0 mg/kg/injection, schedule: Q01DX009 (ip), vehicle: saline with Tween-80 98 % of control | endpoint: mean survival time, dose: 150.0 mg/kg/injection, schedule: Q01DX009 (ip), vehicle: saline with Tween-80 102 % of control

NC(=O)C1CC=CCC1 (centres undefined)
inactive: [1] 110 % of control | [2] 98 % of control | [3] 94 % of control | [4] 105 % of control

Cc1ccccc1C1(c2ccccc2C)OC(=O)c2ccccc21
inactive: endpoint: mean survival time, dose: 100.0 mg/kg/injection, schedule: Q04DX003 (ip), vehicle: acetone 104 % of control | endpoint: mean survival time, dose: 200.0 mg/kg/injection, schedule: Q04DX003 (ip), vehicle: acetone 88 % of control | endpoint: mean survival time, dose: 400.0 mg/kg/injection, schedule: Q04DX003 (ip), vehicle: acetone 96 % of control

C(/C=C\c1ccccc1)=C(/C=C/c1ccccc1)/C=C/c1ccccc1
inactive: endpoint: mean survival time, dose: 200.0 mg/kg/injection, schedule: Q01DX001 (ip), vehicle: saline with Tween-80 89 % of control | endpoint: mean survival time, dose: 400.0 mg/kg/injection, schedule: Q01DX001 (ip), vehicle: saline with Tween-80 89 % of control

O=C(O)c1nn2c(=O)c3cccc4cccc(c43)c2c1C(=O)O
inactive: [1] 95 % of control | [2] 98 % of control | [3] 95 % of control | [4] 95 % of control

COC1=CC(=O)C(OC)=C(OC)C1=O
inactive: endpoint: mean survival time, dose: 3.12 mg/kg/injection, schedule: Q01DX009 (ip), vehicle: saline with Tween-80 94 % of control | endpoint: mean survival time, dose: 6.25 mg/kg/injection, schedule: Q01DX009 (ip), vehicle: saline with Tween-80 97 % of control | [5] 97 % of control | [6] 100 % of control | [7] 105 % of control

Brc1cccc(-n2ccnc2)c1
inactive: [8] 102 % of control | [9] 112 % of control

Cc1nc(C(Cl)C2OC(CO)C(O)C2O)cc(=O)[nH]1 (centres undefined)
inactive: endpoint: median survival time, dose: 18.25 mg/kg/injection, schedule: Q01DX005 (ip), vehicle: saline 118 % of control | endpoint: median survival time, dose: 36.5 mg/kg/injection, schedule: Q01DX005 (ip), vehicle: saline 100 % of control | endpoint: median survival time, dose: 73.0 mg/kg/injection, schedule: Q01DX005 (ip), vehicle: saline 102 % of control | endpoint: median survival time, dose: 146.0 mg/kg/injection, schedule: Q01DX005 (ip), vehicle: saline 100 % of control

CC(=O)OC(c1ccc([N+](=O)[O-])cc1)c1ccccn1 (centres undefined)
inactive: endpoint: mean survival time, dose: 100.0 mg/kg/injection, schedule: Q04DX003 (ip), vehicle: other 96 % of control | endpoint: mean survival time, dose: 200.0 mg/kg/injection, schedule: Q04DX003 (ip), vehicle: other 93 % of control | endpoint: mean survival time, dose: 400.0 mg/kg/injection, schedule: Q04DX003 (ip), vehicle: other 93 % of control

O=C(/C=C/c1ccc(Cl)c(Cl)c1)c1ccccc1
inactive: endpoint: mean survival time, dose: 50.0 mg/kg/injection, schedule: Q01DX009 (ip), vehicle: Klucel (hydroxypropylcellulose) (HPC) 105 % of control | endpoint: mean survival time, dose: 100.0 mg/kg/injection, schedule: Q01DX009 (ip), vehicle: Klucel (hydroxypropylcellulose) (HPC) 98 % of control

CC(=O)OCC1OC(n2cnc3c(I)nc(I)nc32)C(OC(C)=O)C1OC(C)=O (centres undefined)
inactive: endpoint: median survival time, dose: 25.0 mg/kg/injection, schedule: Q01DX005 (ip), vehicle: saline with Tween-80 105 % of control | endpoint: median survival time, dose: 50.0 mg/kg/injection, schedule: Q01DX005 (ip), vehicle: saline with Tween-80 95 % of control | endpoint: median survival time, dose: 100.0 mg/kg/injection, schedule: Q01DX005 (ip), vehicle: saline with Tween-80 96 % of control | endpoint: median survival time, dose: 200.0 mg/kg/injection, schedule: Q01DX005 (ip), vehicle: saline with Tween-80 95 % of control

CCCCCC(CN(C)C)C(/C=C/c1ccccc1)OC(=O)c1ccc([N+](=O)[O-])cc1 (centres undefined)
inactive: [10] 97 % of control | [8] 90 % of control | [11] 100 % of control | [9] 105 % of control | [12] 106 % of control

c1ccc([P+](Cc2ccc(C[P+](c3ccccc3)(c3ccccc3)c3ccccc3)cc2)(c2ccccc2)c2ccccc2)cc1
inactive: endpoint: mean survival time, dose: 0.07 mg/kg/injection, schedule: Q01DX009 (ip), vehicle: saline sonified 94 % of control | endpoint: mean survival time, dose: 0.07 mg/kg/injection, schedule: Q04DX003 (ip), vehicle: saline with Tween-80 97 % of control | endpoint: mean survival time, dose: 0.15 mg/kg/injection, schedule: Q01DX009 (ip), vehicle: saline sonified 98 % of control | endpoint: mean survival time, dose: 0.15 mg/kg/injection, schedule: Q04DX003 (ip), vehicle: saline with Tween-80 93 % of control | endpoint: mean survival time, dose: 0.3 mg/kg/injection, schedule: Q01DX009 (ip), vehicle: saline sonified 93 % of control | endpoint: mean survival time, dose: 0.3 mg/kg/injection, schedule: Q04DX003 (ip), vehicle: saline with Tween-80 93 % of control | endpoint: mean survival time, dose: 0.6 mg/kg/injection, schedule: Q01DX009 (ip), vehicle: saline sonified 96 % of control | endpoint: mean survival time, dose: 0.6 mg/kg/injection, schedule: Q04DX003 (ip), vehicle: saline with Tween-80 98 % of control

Nc1nc(N)nc(-c2ccncc2)n1
inactive: [5] 102 % of control | [6] 106 % of control | [7] 102 % of control

COc1ccc(NC(=O)Nc2ccc(C)cc2C)cc1
inactive: [10] 86 % of control | [11] 88 % of control

Cc1ccc(C)c(Br)c1C
inactive: endpoint: mean survival time, dose: 100.0 mg/kg/injection, schedule: Q01DX005 (ip), vehicle: saline with Tween-80 97 % of control | endpoint: mean survival time, dose: 200.0 mg/kg/injection, schedule: Q01DX005 (ip), vehicle: saline with Tween-80 101 % of control | endpoint: mean survival time, dose: 400.0 mg/kg/injection, schedule: Q01DX005 (ip), vehicle: saline with Tween-80 97 % of control

COc1ccc(C2=CCN(c3ccc(C)cc3)P(=O)(N(CCCl)CCCl)O2)cc1 (centres undefined)
inactive: endpoint: mean survival time, dose: 31.25 mg/kg/injection, schedule: Q01DX001 (ip), vehicle: saline 100 % of control | endpoint: mean survival time, dose: 62.5 mg/kg/injection, schedule: Q01DX001 (ip), vehicle: saline 100 % of control | endpoint: mean survival time, dose: 125.0 mg/kg/injection, schedule: Q01DX001 (ip), vehicle: saline 97 % of control | endpoint: mean survival time, dose: 250.0 mg/kg/injection, schedule: Q01DX001 (ip), vehicle: saline 102 % of control | endpoint: mean survival time, dose: 500.0 mg/kg/injection, schedule: Q01DX001 (ip), vehicle: saline 91 % of control

OC1CCC2CCCCC2C1 (centres undefined)
inactive: endpoint: mean survival time, dose: 25.0 mg/kg/injection, schedule: Q04DX003 (ip), vehicle: saline 107 % of control | endpoint: mean survival time, dose: 50.0 mg/kg/injection, schedule: Q04DX003 (ip), vehicle: saline 94 % of control | [8] 102 % of control | endpoint: mean survival time, dose: 100.0 mg/kg/injection, schedule: Q04DX003 (ip), vehicle: saline 98 % of control | [9] 107 % of control | [12] 101 % of control

O=C(CCCCCCCCC(=O)N/N=C\c1ccccc1O)N/N=C\c1ccccc1O
inactive: [5] 97 % of control | [8] 98 % of control | [9] 93 % of control | [12] 93 % of control

Cc1cc(CSC(=N)N)c(C)cc1CSC(=N)N
inactive: endpoint: mean survival time, dose: 5.0 mg/kg/injection, schedule: Q01DX009 (ip), vehicle: saline with Tween-80 92 % of control | endpoint: mean survival time, dose: 5.0 mg/kg/injection, schedule: Q04DX003 (ip), vehicle: saline with Tween-80 106 % of control | endpoint: mean survival time, dose: 10.0 mg/kg/injection, schedule: Q01DX009 (ip), vehicle: saline with Tween-80 101 % of control | endpoint: mean survival time, dose: 10.0 mg/kg/injection, schedule: Q04DX003 (ip), vehicle: saline with Tween-80 106 % of control | endpoint: mean survival time, dose: 20.0 mg/kg/injection, schedule: Q01DX009 (ip), vehicle: saline with Tween-80 95 % of control | endpoint: mean survival time, dose: 20.0 mg/kg/injection, schedule: Q04DX003 (ip), vehicle: saline with Tween-80 101 % of control

CNC(=O)Oc1ccc(N)cc1
inactive: endpoint: mean survival time, dose: 75.0 mg/kg/injection, schedule: Q01DX001 (ip), vehicle: saline 102 % of control
